Reference: patent publication EP0172632B1, “Benzopyrano[4,3,2-cd]indazole compounds, processes for their production and pharmaceutical compositions comprising the compounds” (WARNER-LAMBERT COMPANY, priority 1984, dated 1986)
Counter-ions that a name gives are not always drawn. Like-named read-outs stand apart in the source and are kept apart here.

Assays:
L1210 cells = test: L1210 in vitro cell growth inhibition; type: cell-based; details: Mus musculus, 72 h; L1210 murine leukemia cells, three days incubation, 50% inhibition of growth; read-out: L1210 in vitro ID50
Description: Another test protocol uses L1210 cells, a murine leukemia cell line, grown in RPMI 1640 supplemented with 5% fetal bovine serum and gentamicin ([…]). Drug dilutions are prepared in the appropriate solvent and 20 µl of each dilution are added to 24-well Linbro tissue culture plates, followed by the addition of 2.0 ml of cell suspension containing 3 x 10^4 cells per ml. Solvent and medium controls are included in each test. After incubation at 37°C for three days in 5% CO2, the contents of each well are removed and the cells counted in a ZBI Counter counter. Percent growth are calculated relative to the controls and the levels of drug activity are expressed as ID50 in moles per liter.

[1] = tested on: lymphocytic leukemia P388; test: in vivo lymphocytic leukemia P388 test; details: Mus musculus, P388, ip, 120 h, mice, survival time treated/control, read-out: P388 in vivo T/C×100; for response vs control in vivo at 12.5 mg/kg: Dose 12.5 mg/kg intraperitoneally once daily for five days; for response vs control in vivo at 25 mg/kg: Dose 25 mg/kg intraperitoneally once daily for five days; for response vs control in vivo at 50 mg/kg: Dose 50 mg/kg intraperitoneally once daily for five days; for response vs control in vivo at 6.25 mg/kg: Dose 6.25 mg/kg intraperitoneally once daily for five days; for response vs control in vivo at 100 mg/kg: Dose 100 mg/kg intraperitoneally once daily for five days
Description: Another test protocol is the in vivo lymphocytic leukemia P388 test. The animals used are either male or female CD2F, mice. There are six or seven animals per test group. The tumor transplant is by intraperitoneal injection of dilute ascitic fluid containing cells of lymphocytic leukemia P388. The test compounds are administered intraperitoneally once daily for five consecutive days at various doses following tumor inoculation. The animals are weighed and survivors are recorded on a regular basis for 30 days. A compound is designated "toxic" if, at a given dose, all animals died prior to four days after the first injection of drug. A ratio of survival time for treated (T)/control (C) animals is calculated. A criterion for efficacy is a ratio T/C times 100 greater than or equal to 125. See Cancer Chemotherapy Reports, Part 3, 3, 1 (1972) for a comprehensive discussion of the protocol.

Streptococcus pneumoniae = test: in vitro antibacterial (ABMF) microdilution susceptibility test; type: cell-based; details: Mueller-Hinton broth microdilution, 37°C, 16-24 hours, read-out: ABMF Minimal Inhibitory Concentration (µ/ml) S. pneum.
Excerpt: (§1) Still another test protocol is the in vitro antibacterial (ABMF) test which is a recognized standard microdilution susceptibility procedure in Mueller-Hinton broth against Gram-positive and Gram-negative bacterial test organisms. The procedure is a modification of a state-of-the-art procedure reported in Manual of Clinical Microbiology, Lennette, E. H., ed., by Barry, A. L. and C. Thornsberry at pages 463-474 and by Gavan, T. L. and A. L. Barry at pages 459―462, American Society for Microbiology, Washington, 1980.
(§2) In the test, a given bacterial culture is used to inoculate individual test wells of microdilution trays containing growth medium and test compound, the latter in a microdilution series: 1000, 333.111, 37,12, 4, 1.4, and 0.46 micrograms per milliliter. […] For convenience, values are reported for Escherichia coli, Corynebacterium Sp. ATCC 21698, Salmonella typhimurium, Streptococcus pneumoniae, and Rhodotorula aurantiaca.

Rhodotorula aurantiaca = test: as above; type: cell-based; details: Buckleyzyma aurantiaca, read-out: ABMF Minimal Inhibitory Concentration (µ/ml) R. aurant
Excerpt: as §1, §2

Escherichia coli = test: as above; type: cell-based; details: Mueller-Hinton broth microdilution, 37°C, 16-24 hours, read-out: ABMF Minimal Inhibitory Concentration (µ/ml) E. coli
Excerpt: as §1, §2

Salmonella typhimurium = test: as above; type: cell-based; details: Salmonella enterica, Mueller-Hinton broth microdilution, 37°C, 16-24 hours, read-out: ABMF Minimal Inhibitory Concentration (µ/ml) S. typh.
Excerpt: as §1, §2

[2] = tested on: Corynebacterium Sp. ATCC 21698; test: as above; type: cell-based; details: ATCC21698, Mueller-Hinton broth microdilution, 37°C, 16-24 hours, read-out: ABMF Minimal Inhibitory Concentration (µ/ml) Coryn. sp.
Excerpt: as §1, §2

HCT-8 cells = test: in vitro proliferating human colon adenocarcinoma (HCA) cell screen; type: cell-based; details: 60 to 65 hours with compound, 50% inhibition of growth, read-out: HCA-4 in vitro ID50
Description: One test protocol is the in vitro proliferating human colon adenocarcinoma (HCA) cell screen. In this test, HCT-8 cells (HCA cell line received from Yale University) are trypsinized using trypsin-EDTA. A single cell suspension is achieved by passing the cells through a 26 gauge needle with a 20 cc syringe. A cell suspension is prepared using RPMI 1640 + 10% FCS + 50 µg/ml gentamicin sulfate with a cell concentration of approximately 30,000 cells/ml. The cell suspension is dispensed in Linbro 24-well plates; 1 ml/well. The plates are incubated for approximately 48 hours at 37°C in a 5% CO2 atmosphere. At this time test compounds are added in the appropriate concentration. Five µl of the 200 µg/ml stock solution is added to each well in a primary test. Ten ul of the appropriate dilution is added to each well for the titration test. The plates are reincubated an additional 60 to 65 hours at 37°C in a 5% C02 atmosphere. The cells are lysed using a mix of cationic surfactant, glacial acetic acid, and sodium chloride. Two ml of the lysed cell suspension from each well is added to 8 ml of diluent. The number of nuclei is determined using a Coulter counter (ZBI model), and a percent growth for each drug concentration is calculated. From this, an IDso (molar concentration of compound that results in 50% inhibition of growth) is determined.

[3] = Mueller-Hinton broth microdilution, 37°C, 16-24 hours

Compound	IC50 (L1210 cells) [nM]	response vs control in vivo at 60 mg/kg ([1]; Dose 60 mg/kg intraperitoneally once daily for five days) [%]	response vs control in vivo at 120 mg/kg ([1]; Dose 120 mg/kg intraperitoneally once daily for five days) [%]	response vs control in vivo at 240 mg/kg ([1]; Dose 240 mg/kg intraperitoneally once daily for five days) [%]	MIC (Streptococcus pneumoniae) [µg/mL]	MIC (Rhodotorula aurantiaca; [3]) [µg/mL]	MIC (Escherichia coli) [µg/mL]	MIC (Salmonella typhimurium) [µg/mL]	MIC [2] [µg/mL]	response vs control in vivo at 12.5 mg/kg [1] [%]	response vs control in vivo at 25 mg/kg [1] [%]	response vs control in vivo at 50 mg/kg [1] [%]	response vs control in vivo at 6.25 mg/kg [1] [%]	response vs control in vivo at 100 mg/kg [1] [%]	response vs control in vivo at 200 mg/kg ([1]; Dose 200 mg/kg intraperitoneally once daily for five days) [%]	MIC (Rhodotorula aurantiaca) [µg/mL]	IC50 (HCT-8 cells) [nM]
O=C(CNCCO)Nc1ccc2c3c(nn2CCNCCO)-c2cc(O)ccc2Oc13 [Example 17, 2-[2-[(2-Hydroxyethyl)amino]ethyl]-9-hydroxy-2H-[1]benzopyrano[4,3,2-cd]indazol-5-yl]-2-[(2-hydroxyethyl)amino]acetamide, hydrochloride]	1700	134	142	184	> 1000	1000	1000	> 1000	333	–	–	–	–	–	–	–	–
O=[N+]([O-])c1ccc2c3c(nn2CCNCCO)-c2cc(O)ccc2Oc13 [Example 15, 2-[2-[(2-Hydroxyethyl)amino]ethyl]-5-nitro-2H-[1]benzopyrano[4,3,2-cd]indazol-9-01, hydrochloride]	15	–	–	–	1.4	1000	> 0.46	12.3	1.4	190	218	230	–	–	–	–	–
Cl.Nc1ccc2c3c(nn2CCNCCO)-c2cc(O)ccc2Oc13 [Example 16, 5-Amino-2-[2-[(2-hydroxyethyl)amino]ethyl]-2H-[1]benzopyrano[4,3,2-cd]indazol-9-ol, hydrochloride]	120	–	–	–	37	> 1000	4.1	37	12.3	200	260	–	165	–	–	–	–
OCCNCCNc1ccc2c3c(nn2CCNCCO)-c2cc(O)ccc2Oc13 [Example 18, 2-[2[(2-Hydroxyethyl)amino]ethyl]-5-[[2-[(2-hydroxyethyl)amino]ethyl]amino-2H [1]benzopyrano[4,3,2-cd]indazol-9-ol, hydrochloride]	130	–	–	–	333	> 1000	111	1000	37	236	236	–	173	–	–	–	–
COc1ccc2c(c1)-c1nn(CCCN(C)C)c3ccc([N+](=O)[O-])c(c13)O2 [Example 7, 9-Methoxy-N,N-dimethyl-5-nitro-2H-[1]benzopyrano[4,3,2-cd]indazole-2-propanamine, methanesulfonate (1:1.17)]	580	–	–	–	< 0.46	1000	4.1	111	< 0.46	–	–	134	–	159	218	–	–
CCN(CC)CCn1nc2c3c(c([N+](=O)[O-])ccc31)Oc1ccc(OC)cc1-2 [Example 5, N,N-Diethyl-9-methoxy-5-nitro-2H-[1]benzopyrano-[4,3,2-cd]indazole-2-ethanamine, methanesulfonate (1: 1)]	920	–	–	–	< 0.46	–	< 0.46	111	< 0.46	–	126	148	–	192	–	111	–
CN(C)CCCn1nc2c3c(c([N+](=O)[O-])ccc31)Oc1ccc(O)cc1-2.CS(=O)(=O)O [Example 11, 9-Hydroxy-N,N-dimethyl-5-nitro-2H-[1]benzopyrano[4,3,2-cd]indazole-2-propanamine, methanesulfonate (1:1)]	15	–	–	–	< 0.46	1000	< 0.46	12.3	< 0.46	200	226	–	150	–	–	–	–
CCN(CC)CCn1nc2c3c(c(NC(=O)CNCCO)ccc31)Oc1ccc(O)cc1-2.Cl [Example 13, N-[2-[2-(Diethylamino)ethyl]-9-hydroxy-2H-[1]benzopyrano[4,3,2-cd]indazole-5-yl]-2-[(2-hydroxyethyl)-amino]acetamide, hydrochloride]	5.7	–	–	–	333	> 1000	111	> 1000	333	–	198	227	–	272	–	–	–
CCN(CC)CCn1nc2c3c(c(N)ccc31)Oc1ccccc1-2 [Example 3, 5-Amino-N,N-diethyl-2H-[1]benzopyrano[4,3,2-cd]indazol-2-ethanamine]	1300	–	–	–	–	–	–	–	–	–	–	–	–	–	–	–	2400
